The results in this text go back to PubChem BioAssay (NCI).

“And” between values parts separate entries of the source, which are not always exact repeats. Equal values may be shown once.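 Five compound concentrations were applied to cells in 96-well plates for 48 hours; endpoints were derived by simple linear interpolation of the resulting dose-response curve. Here, GI50 denotes the concentration required for 50% inhibition of growth. The concentration for full growth arrest is given as TGI.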 Some results are limits rather than exact numbers.

Some test systems named below: CCRF-CEM leukemia; DU-145 prostate; HCT-116 colon; HCT-15 colon; HT29 colon; K-562 leukemia; KM12 colon; SNB-19 CNS; SNB-75 CNS; UO-31 renal.
What all share (experiment): NCI tumour cell line growth inhibition, 48 h

Take `COC(=O)[C@@H](C)C[C@H](Cc1ccccc1)NC(=O)c1csc([C@@H](C[C@H](C(C)C)N(C)C(=O)[C@@H](NC(=O)[C@H]2CCCCN2C)C2CC2)OC(C)=O)n1`: the GI50 with CCRF-CEM leukemia was 0.000621 µM and 0.00165 µM; in the assay with DU-145 prostate, 0.000311 µM; in the assay with HCT-116 colon, 0.00043 µM and 0.00165 µM; in the assay with HCT-15 colon, 0.00131 µM and 0.00165 µM; with HT29 colon, 0.000264 µM and 0.00165 µM; in the assay on K-562 leukemia, 0.000313 µM and 0.00165 µM. Also, the GI50 in the assay on KM12 colon was 0.000317 µM and 0.00165 µM; in the assay on SNB-19 CNS, 0.000552 µM and 0.00165 µM; in the assay with SNB-75 CNS it was 0.000383 µM and 0.00165 µM; with UO-31 renal, 0.00516 µM and 0.00284 µM. Also, the TGI was over 16.5 µM in the assay on CCRF-CEM leukemia; 0.011 µM in the assay on HCT-116 colon; over 16.5 µM in the assay on HCT-15 colon; 0.00135 µM and 0.00208 µM with HT29 colon; over 16.5 µM with K-562 leukemia; over 16.5 µM in the assay on KM12 colon. Moreover, the TGI with SNB-19 CNS, in the assay on SNB-75 CNS and in the assay with UO-31 renal was over 16.5 µM in each case.
For `O=C1C(=O)c2cccnc2-c2ncccc21`, the GI50 in the assay with CCRF-CEM leukemia was 0.0797 µM; in the assay on DU-145 prostate, 0.239 µM; in the assay on HCT-116 colon it was 0.0401 µM; with HCT-15 colon it was 0.185 µM; in the assay with HT29 colon, 1.04 µM; in the assay on K-562 leukemia, 0.211 µM. The GI50 is 0.409 µM in the assay on KM12 colon, 0.236 µM in the assay on SNB-19 CNS, 0.123 µM in the assay with SNB-75 CNS and 0.159 µM in the assay with UO-31 renal. Moreover, the TGI in the assay on CCRF-CEM leukemia worked out at 0.618 µM; in the assay with DU-145 prostate it was 1.28 µM; with HCT-116 colon it was 0.159 µM; with HCT-15 colon it was 1.42 µM; in the assay on HT29 colon, 2.33 µM; in the assay with K-562 leukemia, 0.848 µM. For the same molecule, the TGI with KM12 colon turned out to be 1.59 µM; in the assay with SNB-19 CNS, 1.1 µM; with SNB-75 CNS it was 1.4 µM; with UO-31 renal, 0.486 µM.
Regarding `CCN(CC)c1ccc(C(=O)c2ccc(N(CC)CC)cc2)cc1`, the GI50 with CCRF-CEM leukemia was 0.383 µM; in the assay with DU-145 prostate, 0.623 µM; with HCT-116 colon, 0.453 µM; with HCT-15 colon, 0.412 µM; in the assay with HT29 colon, 0.359 µM; in the assay with K-562 leukemia, 0.15 µM. For the same molecule, the GI50 in the assay on KM12 colon is 0.349 µM; in the assay with SNB-19 CNS it was 2.47 µM; in the assay on SNB-75 CNS it was 0.458 µM; with UO-31 renal it was 0.68 µM. The TGI in the assay on CCRF-CEM leukemia is over 100 µM; in the assay with DU-145 prostate it was 7.23 µM; with HCT-116 colon, 13.6 µM; with HCT-15 colon, 36.1 µM; in the assay on HT29 colon, 3.78 µM; in the assay on K-562 leukemia, 10.2 µM. The TGI was 8.89 µM in the assay on KM12 colon, over 100 µM with SNB-19 CNS, over 83.6 µM in the assay on SNB-75 CNS and 64.2 µM in the assay with UO-31 renal.
For the molecule `S=P(N1CC1)(N1CC1)N1CC1`, the GI50 was 2.11 µM in the assay on CCRF-CEM leukemia; 11.9 µM with DU-145 prostate; 21.2 µM and 171 µM with HCT-116 colon; 26.2 µM with HCT-15 colon; 24.5 µM in the assay on K-562 leukemia; 27 µM in the assay with KM12 colon. The GI50 in the assay on SNB-19 CNS is 18.5 µM and 180 µM; in the assay with SNB-75 CNS, 20.4 µM and 186 µM; in the assay with UO-31 renal it was 18.2 µM and 28.3 µM. In addition, the TGI was > 85.8 µM and 622 µM in the assay on CCRF-CEM leukemia; 520 µM and 97.8 µM in the assay with DU-145 prostate; 46.1 µM and 317 µM and 367 µM with HCT-116 colon; 66.7 µM and 500 µM and 617 µM with HT29 colon; 834 µM and 911 µM in the assay on K-562 leukemia; > 78.4 µM and 719 µM and 787 µM with SNB-19 CNS. For the same molecule, the TGI in the assay with SNB-75 CNS was 57.7 µM and 403 µM and 498 µM; with UO-31 renal, 39.3 µM and 288 µM and 69 µM.
Regarding `C=C(c1ccccc1)[C@@]1(O)CC[C@@H]1N(CC#N)Cc1ccccc1`, the TGI is 62.5 µM in the assay with CCRF-CEM leukemia; over 100 µM in the assay on DU-145 prostate; 30.3 µM in the assay on HCT-116 colon; 34.6 µM in the assay on HCT-15 colon; 40 µM with HT29 colon; over 74.3 µM in the assay with K-562 leukemia. In addition, the TGI was over 71.4 µM in the assay on KM12 colon, over 63.8 µM in the assay with SNB-19 CNS, over 96.5 µM in the assay with SNB-75 CNS and 67.4 µM with UO-31 renal.
As for `C=CC(Cl)(CBr)CCC(Br)C(C)(C)Cl` (stereo not drawn), the TGI in the assay with CCRF-CEM leukemia came to 29 µM; with DU-145 prostate, 42.8 µM; with HCT-116 colon it was 25.4 µM; in the assay with HCT-15 colon it was 36.7 µM; with HT29 colon, 28.9 µM; in the assay on K-562 leukemia, 72.4 µM. Besides, the TGI in the assay on SNB-19 CNS stood at 32.8 µM; in the assay on SNB-75 CNS it was 68.8 µM; in the assay on UO-31 renal, 29.3 µM.
Take `CC(C)=CC1=C2C3=C(C(=O)C4(O)Oc5c(C)c6c7c(c5OC24C)[C@@H](C)CC[C@@H]7[C@@H](C)C[C@H]6C=C(C)C)C(C)CCC3C(C)C1` (stereo partly drawn): the GI50 with CCRF-CEM leukemia, with DU-145 prostate, in the assay with HCT-15 colon, in the assay with HT29 colon, with K-562 leukemia and in the assay with KM12 colon was over 100 µM throughout. Moreover, the GI50 in the assay on SNB-19 CNS, with SNB-75 CNS and in the assay with UO-31 renal was over 100 µM each time. Besides, the TGI with CCRF-CEM leukemia, in the assay with DU-145 prostate, with HCT-15 colon, in the assay on HT29 colon, in the assay with K-562 leukemia and with KM12 colon was over 100 µM in each case. The TGI with SNB-19 CNS, with SNB-75 CNS and with UO-31 renal was over 100 µM throughout.
Consider `C[N+]1=C(/C=C\C=C\c2ccccc2)C(C)(C)c2ccccc21`, for which the GI50 was 2.36 µM in the assay on CCRF-CEM leukemia; 4.62 µM in the assay on DU-145 prostate; 3.3 µM in the assay on HCT-116 colon; 2.27 µM in the assay on HCT-15 colon; 2.6 µM in the assay on HT29 colon; 0.442 µM in the assay with K-562 leukemia. The GI50 is 3.15 µM in the assay on KM12 colon, 2.79 µM in the assay on SNB-19 CNS, 3.73 µM in the assay on SNB-75 CNS and 3.49 µM with UO-31 renal. In addition, the TGI in the assay on CCRF-CEM leukemia is 7.76 µM; with DU-145 prostate, 16.1 µM; in the assay on HCT-116 colon, 13.2 µM; in the assay with HCT-15 colon it was 11.8 µM; in the assay on HT29 colon it was 9.09 µM; in the assay on K-562 leukemia, 7.28 µM. Besides, the TGI in the assay with KM12 colon came to 10.8 µM; in the assay on SNB-19 CNS it was 10.8 µM; with SNB-75 CNS, 16.2 µM; in the assay on UO-31 renal, 15 µM.
